{"source": "patent US6977253B2", "about": "“Methods for the treatment of bipolar disorder using carbamazepine” (Shire Pharmaceutical Development Inc., priority 2003, dated 2005)", "origin": "cited, not measured here", "test_system": "acute mania", "conditions": "controlled carbamazepine monotherapy trials in acute mania; McElroy and Keck 2000", "data": [{"compound": "NC(=O)N1c2ccccc2C=Cc2ccccc21", "note": "[carbamazepine, 5-carbamoyl-5H-dibenz(b,f)azepine]", "values": [{"measurement": "Pooled response rate", "result": 52, "unit": "%"}]}]}
